Data from US6656921B1, “Use of zinc hyaluronate against peptic ulcer” (Richter Gedeon Vegyeszeti Gyar RT., priority 1997, dated 2003).
Marks after values point to notes of the source that are not given here.

Legend:
Assay type in all cases: in vivo, rat
[1] = test system: acidified ethanol induced gastric lesion; assay: Inhibition of acidified-ethanol induced gastric lesions
Experimental: Female RG-Wistar rats weighing between 120-150 g were used. Before experiments animals were fasted for 24 hours but received water ad libitum.
Experiments were carried out according to the technique similar to that described by A. Robert [Gastroenterology 77, […] (1979)].
Acidified ethanol (mixture of 50 ml of abs. ethanol and 1 ml of concentrated HCI) was used as strong irritants. Dose of acidified ethanol was 0.5 ml/100 g body weight with intragastric administration. Test compounds were given orally 30 minutes before the acidified ethanol challenge. When the duration of action of test compound was studied test material was administered 60 or 120 minutes earlier to the irritating effect induced by acidified-ethanol effect. One hour after the acidified ethanol treatment rats were sacrificed by cervical dislocation. Stomachs were removed and opened along the greater curvature and mildly washed down. The longitudinal hemorrhagic lesions were assayed by length.
ED50 value was defined as the dose that gave a 50% decrease in ulcer index.

[2] = test system: acidified ethanol induced gastric damage; assay: Effect of L-NAME (endogenous NO) on protection against acidified-ethanol induced gastric damage
Experimental: To study the mechanism of action of the compound to be tested, the involvement of endogenous NO in the development of acidified-ethanol induced gastric damage was also studied by intraperitoneal administration of L-N^G-nitroarginine methyl ester (L-NAME). L-NAME at a dose of 25 mg/kg was injected 15 minutes before the test compound. In subsequent experiments the test compound (p.o.), L-NAME (25 mg/kg i.p.), L-arginine (400 mg/kg i.v.) were administered 30, 45 or 60 minutes before oral administration of acidified-ethanol.
The connection between the cytoprotective effect of zinc hyaluronate and endogenic NO was studied by using an inhibitor of the nitrogen(II) oxide biosynthesis namely, N^G-nitro-L-arginine methyl ester (L-NAME). Considering that zinc hyaluronate(II) and zinc hyaluronate(M) had shown the same activity in acidified ethanol test, the latter was the only one tested in this experiment.

[3] = test system: stress-induced gastric lesion; assay: Inhibition of stress (cold-restraint) induced gastric lesions; conditions: for Lesion score/stomach ± S.E.M.: 30 min before cold-restraint stress, score 0-3; for Inhibition: 30 min before stress
Experimental: Female RG Wistar rats weighing between 120-150 g were used. Before the experiments animals were fasted for 24 hours but received water ad libitum. Experiments were carried out according to the technique similar to that described by Senay et al., (1967). [Proc. Soc. Exp. Biol. Med.124,1221, (1967)].
Test compounds were given orally. 30 minutes later the animals were immobilized in plastic restraint boxes then placed into a refrigerator at 4° C.-8° C. temperature. Four hours later the animals were removed from both the refrigerator and the restraint boxes and one hour later they were sacrificed by cervical dislocation. The stomachs were removed, opened along the greater curvature and hemorrhagic lesions were scored by a zero to 3 scale: stomachs free from any damage were given a score of 0, stomachs with only a few hemorrhagic lesion were given a score of 1, stomachs with more lesion numbers than 10 were given a score of 2, and stomachs with a lot of lesions were characterized with a score of 3.
The ED50 were defined as the dose needed to decrease the score of gastric lesions by 50%.

[4] = test system: platelet activating factor (PAF) induced gastric lesion; assay: Inhibition of gastric damage induced by platelet activating factor (PAF); conditions: for Inhibition: 30 min before PAF; for Lesion score/stomach ± S.E.M.: 30 min before PAF infusion, score 0-3
Experimental: Male, RG-Wistar rats weighing between 200-250 g were used. Before the experiments animals were fasted for 24 hours but received water ad libitum. Experiments were carried out according to the technique similar to that described by Wallace and Whittle (1986). [Br.J.Pharmac., 89,415, (1986)]. Animals were anaesthetized by intraperitoneal administration of urethane at a dose of 1 g/kg in a volume of 10 ml/kg. Femoral vein was then prepared and cannulated for administration of ulcerogenic PAF. After the surgery PAF was infused intravenously at a rate of 0.1 ml/min for ten minutes at a dose of 200 ng/kg/min. Test compounds were given 30 minutes before the PAF challenge. One hour after the infusion of PAF animals were sacrificed by cervical dislocation; their stomachs were removed and opened along the greater curvature. The hemorrhagic erosions were evaluated by a zero to three scoring system.

[5] = test system: acetic acid induced chronic gastric ulcer; assay: Inhibition of acetic acid induced chronic gastric ulcer; conditions: for Ulcerated area mm^2 ± S.E.M.: day 5 to 14 after surgery
Experimental: Female, RG Wistar rats weighing between 120-150 g were used. Before the surgery animals were deprived of food for 24 hours but received water ad libitum. The chronic gastric ulcer was induced by the injection of 25 μl/animal of 20% (v/v) acetic acid into the gastric wall under light ether anaesthesia according to the method similar to that described by Takagi et al. (1969). The oral treatment with the test compounds was started five days after the surgery and continued in a once-a-day regimen up to the 14th day. The animals were killed on the 15th day and their stomachs were dissected. The severity of ulceration was evaluated by the measurement of the diameter of the ulcers and the area affected was calculated. The healing effect was expressed as differences in percentage between the control and test group values.

[6] = 10 mg/kg p.o., 30 min before acidified ethanol
[7] = 25 mg/kg p.o., 30 min before acidified ethanol
[8] = 25 mg/kg p.o., pretreatment time 60 minutes
[9] = 25 mg/kg p.o., pretreatment time 120 minutes
[10] = 50 mg/kg p.o., 30 min before acidified ethanol
[11] = 50 mg/kg p.o., pretreatment time 60 minutes
[12] = 50 mg/kg p.o., pretreatment time 120 minutes
[13] = 100 mg/kg p.o., 30 min before acidified ethanol
[14] = 100 mg/kg p.o., pretreatment time 60 minutes
[15] = 100 mg/kg p.o., pretreatment time 120 minutes
[16] = D-Arg + L-NAME + ZH/M, 400 + 25 + 50 mg/kg
[17] = L-Arg + L-NAME + ZH/M, 400 + 25 + 50 mg/kg

## zinc hyaluronate [Zinc hyaluronate (M)]
[1]; [6]
  Inhibition: 47.7%
  Lesion length/stomach mm ± S.E.M.: 57.9 ± 8.2 mm
[1]; [7]
  Inhibition: 69.9%
  Lesion length/stomach mm ± S.E.M.: 33.3 ± 7.7 mm
[1]; [8]
  Inhibition: 28.7%
  Lesion length/stomach mm ± S.E.M.: 49.7 ± 5.9 mm
[1]; [9]
  Inhibition: 12.2%
  Lesion length/stomach mm ± S.E.M.: 53.2 ± 7.7 mm
[1]; [10]
  Inhibition: 88.3%
  Lesion length/stomach mm ± S.E.M.: 13.0 ± 3.0 mm
[1]; [11]
  Inhibition: 45.6%
  Lesion length/stomach mm ± S.E.M.: 37.9 ± 12.2 mm
[1]; [12]
  Inhibition: 45.9%
  Lesion length/stomach mm ± S.E.M.: 32.8 ± 7.5 mm
[1]; [13]
  Inhibition: 97.6%
  Lesion length/stomach mm ± S.E.M.: 2.7 ± 1.4 mm
[1]; [14]
  Inhibition: 93.4%
  Lesion length/stomach mm ± S.E.M.: 4.6 ± 1.7 mm
[1]; [15]
  Inhibition: 83.0%
  Lesion length/stomach mm ± S.E.M.: 10.3 ± 4.6 mm
[1]; p.o., 30 min pretreatment
  ED50 (dose giving 50% decrease in ulcer index): 10.4 mg/kg
[2]; [16]
  Inhibition (compared with the vehicle + vehicle group): 48.4%
  Lesion length/stomach mm ± S.E.M.: 31.2 ± 3.5*d mm
[2]; [17]
  Inhibition (compared with the vehicle + vehicle group): 60.2%
  Lesion length/stomach mm ± S.E.M.: 24.1 ± 4.4*c mm
[2]; L-NAME 25 mg/kg
  Effect of L-NAME pretreatment on the gastroprotective activity (in words): considerably reduced
[2]; L-NAME + ZH/M, 25 + 50 mg/kg
  Inhibition (compared with the vehicle + vehicle group): 31.9%
  Lesion length/stomach mm ± S.E.M.: 41.2 ± 4.6*b mm
[2]; Vehicle + ZH/M, 0 + 50 mg/kg
  Inhibition (compared with the vehicle + vehicle group): 69.6%
  Lesion length/stomach mm ± S.E.M.: 18.4 ± 2.3 mm
[3]; 25 mg/kg p.o.
  Lesion score/stomach ± S.E.M.: 1.0 ± 0.3
  Inhibition: 41.2%
[3]; 50 mg/kg p.o.
  Lesion score/stomach ± S.E.M.: 0.4 ± 0.2
  Inhibition: 76.5%
[3]; 100 mg/kg p.o.
  Lesion score/stomach ± S.E.M.: 0*
  Inhibition: 100%
[3]; oral administration
  ED50 (dose decreasing score of gastric lesions by 50%): 29.4 mg/kg
[4]; 50 mg/kg p.o.
  Inhibition: 27.3%
  Lesion score/stomach ± S.E.M.: 1.6 ± 0.4
[4]; 100 mg/kg p.o.
  Inhibition: 40.9%
  Lesion score/stomach ± S.E.M.: 1.3 ± 0.2
[4]; rat, in vivo
  Protection against ulcerogenic effect of PAF (in words): strongly reduced the ulcerogenic effect of PAF
[5]; 0.1 mg/kg p.o. once a day
  Ulcerated area mm^2 ± S.E.M.: 9.4 ± 2.3 mm^2
[5]; 1.0 mg/kg p.o. once a day
  Ulcerated area mm^2 ± S.E.M.: 7.6 ± 1.4 mm^2
[5]; rat, in vivo
  Effect on healing of acetic acid induced chronic ulcer (in words): accelerated the healing
